Measurements as given in ChEMBL document CHEMBL3808324, “Promising Therapeutic Potential of P2X7 Modulators” (ACS Med Chem Lett, 2016).

Tests used:
[1] = biological target: T1, P2X purinoceptor 7 (Homo sapiens) (UniProt Q99572); assay: (§1) Antagonist activity against ATP-gated P2X7 receptor in LPS-stimulated human PBMC assessed as reduction in P2X7 agonist 2'(3')-O-(4-benzoylbenzoyl) adenosine 5'-triphosphate-induced IL-1beta at 1 uM incubated for 30 mins after 1 hr pre-treatment with LPS followed by Bz-ATP-stimulation for 1.5 hrs by ELISA; set-up: scale not given: the % may be the effect or the level left
T1 sequence (whole entry): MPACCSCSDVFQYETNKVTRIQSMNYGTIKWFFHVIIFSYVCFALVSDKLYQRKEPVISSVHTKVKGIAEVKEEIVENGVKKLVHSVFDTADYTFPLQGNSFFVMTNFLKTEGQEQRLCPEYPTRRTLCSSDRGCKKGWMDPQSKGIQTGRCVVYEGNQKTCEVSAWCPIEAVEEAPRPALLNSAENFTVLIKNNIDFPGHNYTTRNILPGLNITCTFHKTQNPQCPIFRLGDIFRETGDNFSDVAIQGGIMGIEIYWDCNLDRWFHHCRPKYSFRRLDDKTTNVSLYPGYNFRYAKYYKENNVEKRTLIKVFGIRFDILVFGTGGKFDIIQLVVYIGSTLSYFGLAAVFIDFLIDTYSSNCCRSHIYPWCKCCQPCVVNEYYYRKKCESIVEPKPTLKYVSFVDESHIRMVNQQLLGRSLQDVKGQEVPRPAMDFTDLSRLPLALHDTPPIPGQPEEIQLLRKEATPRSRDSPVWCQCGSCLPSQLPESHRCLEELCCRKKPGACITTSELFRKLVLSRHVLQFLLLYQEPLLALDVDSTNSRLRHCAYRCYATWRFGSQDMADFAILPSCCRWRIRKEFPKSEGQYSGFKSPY

[2] = biological target: T1, P2X purinoceptor 7 (Homo sapiens); assay: as §1, with “at 10” for “at 1”; set-up: scale not given: the % may be the effect or the level left
P2X purinoceptor 7 = biological target: T2, P2X purinoceptor 7 (Rattus norvegicus, UniProt Q64663); assay: Antagonist activity against rat recombinant ATP-gated P2X7 receptor expressed in human 1321N1 cells assessed as reduction in BzATP -induced Ca2+ flux pre-incubated for 30 mins before BzATP addition by calcium-4 dye based FLIPR assay; type: cell-based
T2 sequence (Q64663 whole entry): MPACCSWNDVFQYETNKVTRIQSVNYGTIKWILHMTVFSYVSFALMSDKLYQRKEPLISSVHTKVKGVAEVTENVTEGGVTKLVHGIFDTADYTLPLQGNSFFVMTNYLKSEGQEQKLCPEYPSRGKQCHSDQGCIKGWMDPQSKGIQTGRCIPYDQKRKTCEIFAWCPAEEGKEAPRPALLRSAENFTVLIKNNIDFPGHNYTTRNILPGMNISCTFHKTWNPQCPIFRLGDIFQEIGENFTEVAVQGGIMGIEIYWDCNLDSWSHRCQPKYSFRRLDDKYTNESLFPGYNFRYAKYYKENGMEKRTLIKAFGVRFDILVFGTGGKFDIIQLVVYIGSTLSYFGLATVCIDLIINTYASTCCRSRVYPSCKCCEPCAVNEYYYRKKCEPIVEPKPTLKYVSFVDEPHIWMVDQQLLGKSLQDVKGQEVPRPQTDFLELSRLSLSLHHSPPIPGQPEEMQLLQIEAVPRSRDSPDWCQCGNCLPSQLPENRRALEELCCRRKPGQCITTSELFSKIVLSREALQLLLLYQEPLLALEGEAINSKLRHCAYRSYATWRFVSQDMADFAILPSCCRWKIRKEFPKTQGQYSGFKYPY

Structure (SMILES): O=C(c1cccc(Cl)c1Cl)N1CCc2c(ncnc2-n2nccn2)C1
- Activity [1]: 71.8%

Structure (SMILES): COc1cccc(C(=O)N2Cc3nc(C)nc(-c4ccn[nH]4)c3CC2C)c1F (stereo not drawn)
- Activity [2]: 2%
- IC50 (P2X purinoceptor 7): 1460 nM

Structure (SMILES): O=C(c1cccc(Cl)c1Cl)N1CCc2c(ncnc2-c2ccn[nH]2)C1
- Activity [1]: 14.2%

Structure (SMILES): O=C(c1cccc(C(F)(F)F)c1Cl)N1CCc2c(ncnc2-c2ccccn2)C1
- Activity [1]: 26.9%

Structure (SMILES): Cc1nc2c(c(-c3ccn[nH]3)n1)C[C@@H](C)N(C(=O)c1ccc(F)c(C(F)(F)F)c1Cl)C2 (single isomer, unassigned)
- Activity [2]: -6.1%

Structure (SMILES): Cc1nc2c(c(-c3c(C)noc3C)n1)CCN(C(=O)c1cccc(C(F)(F)F)c1Cl)C2
- Activity [2]: 100%
- Activity [1]: 104%
